“Also recorded” adds a separate entry of the source.
What was measured:
[1] = test system: SNU638 human stomach cancer cell; assay: SRB cell proliferation assay, SNU638; type: cell-based; details: SNU-638, 72 h, 3 days
Method: (§1) ^a A series of indirubin derivatives were tested at five concentrations for their effects on various human cancer cell lines using SRB assay, as described in the Experimental Section.
(§2) Cells (A549, HT1080, HCT116, K562, SNU638, KB, MCF-7) were counted, diluted to 5×10^4 cells/mL with fresh medium (MEME, DMEM or RPMI containing 10% FBS), and added 190 μL of cell suspension to 96-well plates containing various concentrations of test compounds (10 μL in 10% aqueous DMSO). Test plates were incubated for 3 days at 37° C. in CO2 incubator. For zero day controls, cells were incubated for 30 min at 37° C. in CO2 incubator. All treatments were performed in triplicate. After the incubation periods, cells were fixed with 50 μL of cold 50% TCA at 4° C. for 30 min, washed 5 times with tap water, and air-dried. The fixed cells were stained with 0.4% SRB solution in 1% aqueous acetic acid at room temperature for 1 h. Free SRB solution was then removed by rinsing 5 times with 1% acetic acid, and air-dried. The bound dye was dissolved with 200 µL of 10 mM Tris-base (pH 10.0), and absorbance was determined at 515 nm using an ELISA microplate reader. Finally, the absorbance values obtained with each of the treatment procedures were averaged, and the average values obtained with the zero day control were subtracted.

K562 human leukemia cell = assay: SRB cell proliferation assay, K562; type: cell-based; details: K562, 72 h, 3 days
Method: as §1, §2

CDK1 = details: from a report; read-out: CDK1 inhibitory activity IC50; cited from earlier work
[2] = test system: HCT116 human colon cancer cell; assay: SRB cell proliferation assay, HCT116; type: cell-based; details: 3 days
Method: as §1, §2

[3] = test system: A549 human lung cancer cell; assay: SRB cell proliferation assay, A549; type: cell-based; details: A549, 72 h, 3 days
Method: as §1, §2

[4] = test system: MCF-7 human breast cancer cell; assay: SRB cell proliferation assay, MCF-7; type: cell-based; details: MCF7, 72 h, 3 days
Method: as §1, §2

[5] = test system: KB human nasopharyngeal cancer cell; assay: SRB cell proliferation assay, KB; type: cell-based; details: 72 h, 3 days
Method: as §1, §2

[6] = test system: HT1080 human fibro sarcoma cell; assay: SRB cell proliferation assay, HT1080; type: cell-based; details: HT-1080, 72 h, 3 days
Method: as §1, §2

[7] = Tumor xenograft animal model, body weight; type: in vivo, SD rats; details: 5 mg/kg i.v. every other day, five times
From the text: The k-ras-transformed rat kidney epithelial cell line (RK3E-ras) were maintained in DMEM supplemented with 10% FCS, 100 units/mL penicillin, and 100 Ag/mL streptomycin. RK3E-ras cells were kindly provided by Dr. Eric Fearon (University of Michigan Medical School, Ann Arbor, Mich.) and have been described in the previous report. Male SD rats (6 weeks of age) were used to examine the inhibition of tumor growth in vivo. RK3E-ras-Luc cells (5×10^6) were implanted subcutaneously into the flank of the rats on Day 0, and rats were grouped randomly (5 […]/group) on Day 5 as previously described. […] The animals were sacrificed 48 hr after the final administration, and rat weights and tumor volumes were measured. The tumor growth volumes were calculated as follows: V=(ab^2)/2, where, a is the longest diameter and b is the shortest diameter of the tumor. All experiments were conducted under protocols approved by the Animal Care and Use Committee at Chosun University School of Dentistry (Gwangju, South Korea).

IKKβ = target: T1, IKKβ (Homo sapiens, UniProt O14920); assay: HTRF kinase assay, IKKβ; type: biochemical; details: dose response curves; read-out: IC50 against IKKβ
T1 construct: Recombinant proteins containing kinase domain were purchased from Millipore (Billerica, Mass.); purchased Millipore (Billerica, Mass.)
T1 sequence (O14920 15-300 limits assumed): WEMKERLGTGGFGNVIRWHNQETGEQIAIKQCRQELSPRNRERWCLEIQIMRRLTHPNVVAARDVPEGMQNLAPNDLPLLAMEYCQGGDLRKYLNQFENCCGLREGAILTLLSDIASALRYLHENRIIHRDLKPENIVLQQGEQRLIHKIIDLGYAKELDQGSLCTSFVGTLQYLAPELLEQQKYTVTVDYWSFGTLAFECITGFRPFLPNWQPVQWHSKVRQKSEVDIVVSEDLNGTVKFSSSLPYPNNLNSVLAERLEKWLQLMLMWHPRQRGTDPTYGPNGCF
Method: (§3) Inhibition of kinase activity against a variety of recombinant kinases (c-Met, Met M1250T, Ron, VEGF2, EGFR, TrkA, PI3Kγ, IKKβ Insulin receptor, Aurora A) was measured using homogeneous time-resolved fluorescence (HTRF) assays. Briefly, assays are based on the phosphorylation of peptide substrates in the presence of ATP. Resulting phosphorylated substrates are detected by TR-FRET (Time Resolved-Fluorescence Resonance Energy Transfer) signal. Recombinant proteins containing kinase domain were purchased from Millipore (Billerica, Mass.). Optimal enzyme, ATP, and substrate concentrations were established for each enzyme using HTRF KinEASE kit (Cisbio) according to the manufacturer's instruction. Assays are consisted of enzymes mixed with serially diluted compounds and peptide substrates in kinase reaction buffer (250 mM HEPES (pH 7.0), 0.5 mM orthovanadate, 0.05% BSA, 0.1% NaN3). Following the addition of reagents for detection, TR-FRET signal was measured using EnVision multi-label reader (Perkin Elmer, Waltham, Mass.).

RK3E-ras-Luc cells [8] = assay: In vivo bioluminescence imaging assay; set-up: species or system SD rats; details: day 10 after treatment, 5 mg/kg i.v.
From the text: For bioluminescence imaging, the rats received an i.p. injection of luciferin (Molecular Probes, Palo Alto, Calif.) with Rumpun/ketamine (1:1) anesthesia. The rats were imaged using a LAS-1000 plus imaging System (Fuji film. Tokyo. Japan) to record the bioluminescent signal emitted from the tumor. The LAS-1000 system equipped with a CCD camera was used for acquisition of the emitted light, and Living Image software (Multi Gauge v3.0) was used for data analysis.

[9] = test system: several human cancer cell lines; assay: SRB cell proliferation assay, summary over cell lines; type: cell-based; details: for IC50: Homo sapiens, range over cell lines, read-out: anti-proliferative IC50, range over cancer cell lines
Method: as §1, §2

CDK1/cyclin B = CDK1/cyclin B (Homo sapiens, UniProt P06493); assay: CDK1/cyclin B kinase assay; type: biochemical; details: read-out: IC50 in CDK1/cycline B kinase assay
Sequence of CDK1/cyclin B (P06493 whole entry): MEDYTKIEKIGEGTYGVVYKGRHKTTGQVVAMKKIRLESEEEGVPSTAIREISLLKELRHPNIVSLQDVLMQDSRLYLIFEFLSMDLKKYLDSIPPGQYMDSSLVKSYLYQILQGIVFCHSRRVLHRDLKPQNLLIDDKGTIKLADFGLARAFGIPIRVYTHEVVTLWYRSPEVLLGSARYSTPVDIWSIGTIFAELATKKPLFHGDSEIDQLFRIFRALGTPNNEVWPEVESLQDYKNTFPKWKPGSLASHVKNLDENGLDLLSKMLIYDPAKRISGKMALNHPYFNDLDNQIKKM
Sequence of CDK1/cyclin B (P14635 whole entry partner): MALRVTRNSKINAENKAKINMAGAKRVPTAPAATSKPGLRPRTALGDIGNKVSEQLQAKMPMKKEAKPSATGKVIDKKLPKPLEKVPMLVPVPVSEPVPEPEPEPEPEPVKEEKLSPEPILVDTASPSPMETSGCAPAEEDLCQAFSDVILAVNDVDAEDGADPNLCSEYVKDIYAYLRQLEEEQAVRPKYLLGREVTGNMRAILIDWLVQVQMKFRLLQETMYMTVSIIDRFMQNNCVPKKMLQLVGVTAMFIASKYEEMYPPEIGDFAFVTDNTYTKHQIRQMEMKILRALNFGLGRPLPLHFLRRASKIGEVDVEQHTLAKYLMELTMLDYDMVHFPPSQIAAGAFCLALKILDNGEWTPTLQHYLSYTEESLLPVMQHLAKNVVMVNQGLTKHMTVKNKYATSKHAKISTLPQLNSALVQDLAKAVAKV
From the text: The reaction was initiated by the addition of the MgATP mix.

RK3E-ras-Luc cells [10] = assay: TUNEL assay on tumor sections; type: in vivo, SD rats; details: 5 mg/kg i.v.
Method: (§4) The excised solid tumors were fixed in 10% buffered formalin and embeddedin paraffin. For optical microscopic examinations, 4-μm sectioned tissues were stained with H&E. Immunohistochemical staining was performed with the avidin-biotin complex method using anti-PCNA antibodies. The immune reactions were visualized with 3,3′-diaminobenzidine and counterstained with Mayer's hematoxylin. A TUNEL assay was performed using an ApopTag PlusPeroxidase In Situ Apoptosis Detection kit (Intergen, Purchase, N.Y.) according to the manufacturer's instructions. Briefly, the slides were deparaffinized and treated with 20 μg/mL proteinase K at 37° C. for 15 min to enhance staining. After immersion 3% hydrogen peroxide to block the endogenous peroxidase, the slides were incubated with a reaction buffer containing terminal de-oxynucleotidyl transferase at 37° C. for 1 h. The slides were then incubated with a peroxidase-conjugated anti-digoxigenin antibody for 30 min, and the reaction products were visualized with a 0.03% 3,3′-diaminobenzidine solution containing 2 mM hydrogen peroxide. The slides were counterstained with 0.5% methyl green.

RK3E-ras-Luc cells [11] = assay: Histology (H&E) of tumor tissue; type: in vivo, SD rats; details: 5 mg/kg i.v.
Method: as §4

[12] = test system: T2, c-Met, Met M1250T, Ron, VEGF2, EGFR, TrkA, PI3Kγ, IKKβ Insulin receptor, Aurora A; assay: Kinase panel screening (HTRF); type: biochemical; details: 10 μM
T2 construct: other: 10 μM
Method: as §3

PCNA = assay: Immunohistochemical staining for PCNA in tumor; type: in vivo, SD rats; details: 5 mg/kg i.v.
Method: as §4

CDK2/cyclin E = target: T3, CDK2/cyclin E (Homo sapiens, UniProt P24941); assay: CDK2/cyclin E kinase assay; type: biochemical; details: for IC50: ten concentrations, dose response curves, read-out: CDK2/cyclin E inhibitory activity IC50
T3 construct: purchased Milipore (Billerica, Mass.)
Method: CDK1/cyclin B, CDK2/cyclin E were purchased from Milipore (Billerica, Mass.). The kinase activity was tested in buffer (8 mM MOPS pH 7.0, 0.2 mM EDTA, 10 mM MgAcetate), with 0.1 mg/mL histone H1, in the presence of 45 µM [—^33P] ATP (500 cpm/pmol) for CDK1 or 120 μM [γ—^33P] ATP (500 cpm/pmol) for CDK2 in a final reaction volume of […]. The reaction was initiated by the addition of the MgATP mix. After incubation for 40 min at 30° C., the reaction was stopped by the addition of 5 μL of 3% phosphoric acid solution. 10 μL aliquots of supernatant were spotted onto 2.5 cm×3 cm pieces of Whatman […] phosphocellulose paper, and 20 s later, the filters were washed three times for 5 min in 75 mM phosphoric acid and once in methanol prior to drying. The […] filters were counted in the presence of 1 mL of ACS (Amersham) scintillation fluid. The activities are usually expressed as a percentage of the maximal activity, i.e., in the absence of inhibitors. Controls were applied with appropriate dilutions of DMSO.

TrkA = target: T4, TrkA (Homo sapiens, UniProt P04629); assay: HTRF kinase assay, TrkA; type: biochemical
T4 construct: Recombinant proteins containing kinase domain were purchased from Millipore (Billerica, Mass.); purchased Millipore (Billerica, Mass.)
T4 sequence (P04629 510-781 limits assumed): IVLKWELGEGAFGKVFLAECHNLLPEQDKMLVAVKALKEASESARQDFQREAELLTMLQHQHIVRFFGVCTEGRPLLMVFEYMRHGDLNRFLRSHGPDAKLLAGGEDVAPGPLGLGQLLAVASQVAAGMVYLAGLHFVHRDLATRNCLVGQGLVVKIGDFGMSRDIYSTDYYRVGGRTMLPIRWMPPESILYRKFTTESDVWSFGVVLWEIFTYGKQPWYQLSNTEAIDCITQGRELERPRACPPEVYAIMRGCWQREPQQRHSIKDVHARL
Method: as §3

SMILES	IC50 [1]	IC50 (K562 human leukemia cell)	IC50 ([2]; Homo sapiens, HCT-116, 72 h)	IC50 [3]	IC50 [4]	IC50 [5]	IC50 [6]	IC50 [9]	inhibitory activity against kinase panel [12]	IC50 (CDK2/cyclin E)	also measured
O=C1Nc2ccc([N+](=O)[O-])cc2C1=C1Nc2ccc(Br)cc2C1=NO [Compound 2, 5′-Bromo-5-nitro-indirubin-3′-oxime, reference compound]	1140 nM	770 nM	450 nM	16900 nM	950 nM	1160 nM	1450 nM				IC50 (CDK1): 190 nM
O=C1Nc2ccc([N+](=O)[O-])cc2/C1=C1/Nc2ccc(O)cc2C1=NO [Compound 11b, (2′Z, 3′E)-5′-Hydroxy-5-nitro-indirubin-3′-oxime]					1200 nM	1300 nM		200 to 3300 nM	weak inhibitory activity only against Aurora A, IKKβ and TrkA	1.91 nM	body weight compared with control [7]: without loss of body weight; also recorded: no significant difference in body weight; IC50 (IKKβ): 10000 nM; luminescence intensity (indicator of tumor growth) (RK3E-ras-Luc cells [8]): significantly decreased; IC50 (CDK1/cyclin B): 13 nM; TUNEL-positive apoptotic cells compared with control tissue (RK3E-ras-Luc cells [10]): about 6.0 fold; histological analysis of treated tumor (RK3E-ras-Luc cells [11]): extensive cell death; expression level of PCNA compared with control (PCNA): decreased; inhibition at 1 µM (TrkA; 1 μM, read-out: inhibitory activity against TrkA): 9%; IC50 (TrkA; dose response curves, read-out: IC50 against TrkA): 4000 nM
O=C1Nc2ccc([N+](=O)[O-])cc2/C1=C1/Nc2ccc(Cl)cc2C1=NO [Compound 12b, (2′Z, 3′E)-5′-Chloro-5-nitro-indirubin-3′-oxime]	1160 nM	560 nM	~300 nM	15600 nM	500 nM	1100 nM	1250 nM		negligible inhibitory activities	23.5 nM	IC50 [2]: 330 nM
Cc1ccc2c(c1)C(=NO)/C(=C1/C(=O)Nc3ccc([N+](=O)[O-])cc31)N2 [Compound 14b, (2′Z, 3′E)-5′-Methyl-5-nitro-indirubin-3′-oxime]	1060 nM	800 nM	1410 nM	> 20000 nM	1060 nM	2100 nM	3920 nM	800 to 1000 nM		8.68 nM	selectivity for CDK2 over CDK1 (CDK2/cyclin E; CDK2 vs CDK1): 7 fold; CDK2 inhibitory effect relative to 16b (CDK2/cyclin E; enhanced compared with 16b): 270 fold
COc1ccc2c(c1)C(=NO)/C(=C1/C(=O)Nc3ccc(F)cc31)N2 [Compound 16b, (2′Z, 3′E)-5′-Methoxy-5-fluoro-indirubin-3′-oxime]	13600 nM	5290 nM	3590 nM	6710 nM	> 20000 nM	> 20000 nM	4840 nM			4120 nM	anti-proliferative activity in words [9]: moderate anti-proliferative activity
